From patent publication US9815851B2, “Pyrrolo carboxamides as modulators of orphan nuclear receptor RAR-related orphan receptor-gamma (RORγ, NR1F3) activity and for the treatment of chronic inflammatory and autoimmune diseases” (PHENEX PHARMACEUTICALS AG, priority 2011, dated 2017)

Experiments:
[1] = biological target: T1, RORγ ligand binding domain (LBD) (Homo sapiens, UniProt P51449); experiment: TR-FRET Activity Assay (ligand sensing, RORγ-LBD / coactivator peptide interaction, LANCE); format: biochemical; settings: first value of the cell FRET/FF/REN; TR-FRET activity assay; read-out: pIC50 (FRET) (converted)
T1 construct: made in house; host or cells: E. coli BL-21 (BL3), vector pDEST15
T1 sequence (P51449 269-508 limits assumed): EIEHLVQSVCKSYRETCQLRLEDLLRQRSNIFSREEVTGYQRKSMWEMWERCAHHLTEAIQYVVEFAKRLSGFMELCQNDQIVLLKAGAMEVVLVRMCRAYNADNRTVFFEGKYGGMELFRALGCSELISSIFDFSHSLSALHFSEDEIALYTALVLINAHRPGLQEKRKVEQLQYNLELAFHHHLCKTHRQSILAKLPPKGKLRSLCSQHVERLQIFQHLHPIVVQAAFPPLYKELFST

RORγ = biological target: T2, RORγ (UniProt P51449); experiment: RORγ Gal4 Reporter Gene Assay in 293T cells (firefly and renilla luciferase); format: cell-based, human; settings: Gal4 reporter gene assay in 293T cells; for pIC50 (FF): second value of the cell, firefly luciferase; for pIC50 (REN): third value of the cell, renilla normalised luciferase
T2 sequence (P51449 1-518): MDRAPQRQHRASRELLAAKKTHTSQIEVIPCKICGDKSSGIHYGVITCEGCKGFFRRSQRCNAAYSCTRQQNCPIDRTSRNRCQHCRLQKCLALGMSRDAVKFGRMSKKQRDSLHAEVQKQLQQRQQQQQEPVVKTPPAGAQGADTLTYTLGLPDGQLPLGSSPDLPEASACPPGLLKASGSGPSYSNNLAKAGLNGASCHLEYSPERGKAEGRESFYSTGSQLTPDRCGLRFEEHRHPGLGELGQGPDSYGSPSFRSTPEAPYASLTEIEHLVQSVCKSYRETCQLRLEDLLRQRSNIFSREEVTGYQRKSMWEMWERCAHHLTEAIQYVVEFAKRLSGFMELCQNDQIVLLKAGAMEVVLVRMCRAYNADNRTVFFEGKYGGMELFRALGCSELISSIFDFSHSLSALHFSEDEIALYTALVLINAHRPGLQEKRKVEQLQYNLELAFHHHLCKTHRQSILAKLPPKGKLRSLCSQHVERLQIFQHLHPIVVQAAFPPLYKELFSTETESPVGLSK

SMILES	IC50 [1] [µM]	pIC50 (FF) (RORγ)	pIC50 (REN) (RORγ)
Cc1c(C(=O)NC2CCOCC2)cc(-c2ccc(S(=O)(=O)NC(C)(C)C)c(C(F)(F)F)c2)n1CC1(F)CCCCC1 [Example 28, 5-(4-(N-(tert-Butyl)sulfamoyl)-3-(trifluoromethyl)phenyl)-1-((1-fluorocyclohexyl)-methyl)-2-methyl-N-(tetrahydro-2H-pyran-4-yl)-1H-pyrrole-3-carboxamide]	1.26	6.6	6.9
Cc1c(C(=O)NC2CCOCC2)cc(-c2cc(C(C)(C)O)c3c(c2)C2(CCO3)CC2)n1CC1CCCCC1 [Example 31, 1-(Cyclohexylmethyl)-5-(8-(2-hydroxypropan-2-yl)spiro[chroman-4,1′-cyclopropan]-6-yl)-2-methyl-N-(tetrahydro-2H-pyran-4-yl)-1H-pyrrole-3-carboxamide]	1.26	6.9	6.9
Cc1c(C(=O)NC2CCOCC2)cc(-c2ccc(CN3CCOCC3)c(C(F)(F)F)c2)n1CC1CCCCC1 [Example 33, 1-(Cyclohexylmethyl)-2-methyl-5-(4-(morpholinomethyl)-3-(trifluoromethyl)phenyl)-N-(tetrahydro-2H-pyran-4-yl)-1H-pyrrole-3-carboxamide]	3.16	6.2	6.3

Second part, the compound after the results:

IC50 [1] [µM]	pIC50 (FF) (RORγ)	pIC50 (REN) (RORγ)	SMILES
3.98	7.2	7.2	Cc1c(C(=O)N[C@H]2C[C@H](C(=O)O)C2)c(Cl)c(-c2cc(C(C)(C)C)cc(C3(C)CC3)c2)n1CC1CCCCC1 [Example 29, (trans)-3-(5-(3-(tert-Butyl)-5-(1-methylcyclopropyl)phenyl)-4-chloro-1-(cyclohexylmethyl)-2-methyl-1H-pyrrole-3-carboxamido)cyclobutanecarboxylic acid]
0.398	6.8	7.1	Cc1c(C(=O)NC2CCOCC2)cc(-c2ccc(CN3CCOCC3(C)C)c(C(F)(F)F)c2)n1CC1CCCCC1 [Example 34, 1-(Cyclohexylmethyl)-5-(4-((3,3-dimethylmorpholino)methyl)-3-(trifluoromethyl)phenyl)-2-methyl-N-(tetrahydro-2H-pyran-4-yl)-1H-pyrrole-3-carboxamide]
